Data set [1] relates to ICAM-1 on MM cells (CD38+/mCD45-). Nature of the data set: ICAM-1 expression on myeloma cells from treated mice (disseminated RPMI-8226 model, flow cytometry). It counts as in vivo, SCID mice. The following applies: tumor cells isolated from mice treated with standard of care therapies. As for the experimental part: Organs for FACS analysis were collected at scarification of mice, and cells from tissues were prepared by mechanistic dissociation and dispase/collagenase enzymatic digestion (Gibco, France). Cells were stained with anti-human CD38 antibody (PerCP-Cy5, Becton Dickinson), an anti-mouse CD45 (PE, Becton Dickinson) and human ICAM-1 (B11 IgG1 AF647, BioInvent) and incubated in the dark for 15 min at room temperature. After the incubation, cells were washed twice and the surface fluorescence of cells was analyzed with a flow cytometer apparatus (LSRII) at the Flow Cytometry Facility of the University of Burgundy.
200 μl containing 10×10^6 of RPMI 8226 tumour cells was intravenously injected into the caudal vein of female SCID mice. The mice had been subjected to a whole body irradiation of mice (1.8 Gy, ^60Co, BioMEP) 24 to 72 hours prior to cell injection. At D1, tumor injected mice were randomized according to their individual body weight. All treatment started day 5 after tumor cell administration except for ALKERAN®, which started at day 10. All treatments were injected in a dose volume of 10 ml/kg/inj. Mice received one of the following treatments:
The health status and behavior of mice was recorded every day and body weight of mice was recorded twice a week. […] Upon termination, bone marrow, spinal cord, adrenal glands and kidneys were collected and examined for ICAM-1 expression on tumor cells. To distinguish cells of human versus murine origin, an anti-mouse CD45 mAb was used CD45. […] In addition, cells were stained with AF647 conjugated anti ICAM-1 mAb and thereafter analyzed in a FACS LSRII. Bone marrow was mechanically dissociated to a single cell suspension whereas adrenal glands, kidneys and spinal cord cells were prepared using a combination of mechanistic dissociation and dispase/collagenase digestion (Gibco, France). Prior to the experiment, dispase and collagenase treatments were shown not to effect ICAM-1 levels on MM cell lines.

In data set [2] the test system is ARH-77 cells. The experiment in a line: Disseminated scid/ARH-77 model of multiple myeloma. It counts as in vivo, scid mice. The following applies: i.v. on Days 7, 10, 13, 16; antibody 2 mg/kg, bortezomib 0.5 mg/kg; vs control treatment. As for the experimental part: ARH-77 cells or RPMI-8226 were injected intravenously into the SCID mice. (A) ARH-77 model. Animals received intravenous injections with antibody at 2 mg/kg or bortezomib (Velcade) at 0.5 mg/kg on Days 7, 10, 13, and 16 (as indicated by arrows in the graph). (B) RPMI-8226-model. B11 or control mAb was administered i.v at 2 mg/kg, twice weekly for 8 weeks, bortezomid, at 1 mg/kg, once weekly for 8 weeks, lenalidomide p.o with 2 mg/kg for 2 cycles consisting of 5 days of treatment and 2 days of wash out, melphalan i.v at 3 mg/kg, once weekly for 8 weeks, and dexamethasone (DXH) at 6 mg/kg/inj 3 times/week for 2 consecutive weeks. There were 6-10 mice per treatment group. Statistical significance was calculated using Log-rank Graphpad Prism software and determined at ***p<0.001. (C) To study the ICAM-1 level on human cells, the cells from different organs were stained and gated for CD38+/mCD45−/B11+. Left panel indicates the percentage of B11 positive cells in CD38+/mCD45 population and right panel the mean fluorescent intensity of the positive cells.
The anti-myeloma effect of B11 was examined in a disseminated model of multiple myeloma. The early and advanced disseminated model of multiple myeloma was performed at Oncodesign, Dijon, France. Briefly: 1×10^6 (early) or 5×10^6 (advanced) ARH-77 tumor cells in 200 μL of RPMI 1640 were injected intravenously (i.v) into the caudal vein of female scid mice (D0). Tumor cell injections were performed twenty four to forty eight hours after a whole body irradiation of mice (1.8 Gy, ^60Co, INRA, BRETENNIERES). The treatment was started at D5 RPMI-8226 model or D7 (ARH-77 model) […]. B11 or control mAb was administered i.v. at 2 mg/kg, twice weekly for 8 weeks, bortezomib, at 1 mg/kg, once weekly for 8 weeks, lenalidomide p.o with 2 mg/kg for 2 cycles consisting of 5 days of treatment and 2 days of wash out, melphalan i.v. at 3 mg/kg, once weekly for 8 weeks, and dexamethasone at 6 mg/kg 1 injected 3 times a week for 2 consecutive weeks.
The disseminated model of scid/ARH-77 is a well-established experimental model that resembles human multiple myeloma disease progression and disease manifestation in many respects (33). We utilized this model to further characterize IgG B11 anti-myeloma activity (FIG. 6A). Intravenous injection of irradiated scid mice with 1×10^6 ARH-77 cells was previously shown to result in their dissemination and establishment in mouse bone-marrow, and resulting osteolytic bone-lesions and hypercalcemia, and ultimately, in animal paralysis or difficulty of breathing at which time animals were immediately sacrificed. […]

Data set [3] has as its system ICAM-1 expressing tumor cell lines. The experiment in a line: Complement-dependent cytotoxicity (CDC) in tumor cell lines. It counts as cell-based. The following applies: panel of ICAM-1 expressing tumor cell lines. Here is the method:
Target cells were harvested and incubated in RPMI medium with antibodies at 5 μg/mL or at titrated concentrations between 0.01-100 μg/mL for 60 min on ice. Cells were thereafter washed and resuspended in cold medium before dispension into flow cytometry tubes. Treatments were performed in triplicates. Human serum, normal or heat-inactivated, (Sigma, Sweden) was added to tubes and the samples were incubated for 2 h at 37° C. After completed incubation ToPo-Pro-3 was added at a final concentration of 0.3 μM and cells were analyzed for membrane permeabilization using flow cytometry.

Data set [4] concerns ARH-77 cells. Nature of the data set: Subcutaneous scid/ARH-77 xenograft, treatment from the day after cell inoculation (prophylactic model). The following applies: for anti-tumor activities of IgG B11 isotype switch variants (rank order): twice weekly treatment, s.c. ARH-77.
Method: Tumor cells were injected subcutaneously into the left flank of SCID mice. Mice received twice-weekly intraperitoneal injections with B11, control antibody or rituximab at doses of 20, 2 and/or 0.2 mg/kg commencing one day after tumor cell inoculation. There were 8 to 10 animals per treatment group. (A) Tumor volume as a function of antibody dose. (B) Kaplan-Meier survival graph as a function of antibody dose. […] Statistical significance was calculated relative to control antibody treatment using Kruskal-Wallis Test (Nonparametric ANOVA) with Dunn's Multiple Comparisons Test (tumor volume) or the log-rank test (mouse survival) using Graphpad Instat or Prism software, respectively. Statistical significance was considered for *p<0.05, **p<0.01, and ***p<0.001.
Tumor cells were injected subcutaneously into the left flank of SCID mice. Mice received twice-weekly intraperitoneal injections with B11 at doses of 0.02-20 mg/kg commencing day after tumor cell inoculation. There were 8-10 animals per treatment group. (A) Tumor volume as a function of antibody dose. (B) Kaplan-Meier survival graph as a function of antibody dose. Statistical significance was calculated relative to control antibody treatment using Kruskal-Wallis Test (Nonparametric ANOVA) with Dunn's Multiple Comparisons Test (tumor volume) or the log-rank test (mouse survival) using Graphpad Instat or Prism software, respectively. Statistical significance was considered for *p<0.05, **p<0.01, and ***p<0.001. Graphs illustrate representative experiments out of several performed.
(A) ARH-77 cells were injected subcutaneously into the left flank of SCID mice (n=8 per group). Mice were treated with the different B11 isotypes twice weekly. […] Statistical significance was calculated relative to control antibody treatment using Kruskal-Wallis Test (Nonparametric ANOVA) with Dunn's Multiple Comparisons Test. Statistical significance was considered for *p<0.05, **p<0.01, and ***p<0.001.
Mice were anaesthetized with a mixture of sevofluran and oxygen prior to myeloma cell inoculation and 1-5×10^6 myeloma cells were then subcutaneously injected in a volume of 100 μl into the left flank. Treatment with antibodies by intraperitonial (i.p.) injections was started either the day after cell inoculation (prophylactic model) or when tumors reached a size of approximately 100 mm^3 (established model).
Data set [5] deals with ARH-77 tumors. Nature of the data set: Advanced (established, palpable tumors) scid/ARH-77 xenograft model. The following applies: IgG B11 effective even at 100-fold lower dose (0.2 mg/kg) than rituximab.
Method: Mice were anaesthetized with a mixture of sevofluran and oxygen prior to myeloma cell inoculation and 1-5×10^6 myeloma cells were then subcutaneously injected in a volume of 100 μl into the left flank. Treatment with antibodies by intraperitonial (i.p.) injections was started either the day after cell inoculation (prophylactic model) or when tumors reached a size of approximately 100 mm^3 (established model). Antibodies were administrated in PBS in a total volume of 200 μL. Treatment with PBS or isotype control was used as control. Tumors were measured with a digital calliper and the tumor volumes were calculated according to formula: width^2×length×0.52. Animals were sacrificed when the tumor sizes reached the ethical limit of 1.5 cm. Surviving mice were sacrificed after a maximum of 5 months. Blood samples collected from the vena cava were centrifuged at 2500 g for 15 min to obtain serum and the samples were stored at −20° C. Tumors were removed for immunohistochemistry, snap frozen and were kept at −85° C.
The subject of data set [6] is B lymphoma cell line (CL-01). The experiment in a line: Antibody-dependent cell-mediated cytotoxicity (ADCC) with natural killer effector cells. It counts as cell-based. The following applies: human Natural Killer effector cells. The source says: Buffy coats from human donors (ordered through Blodcentralen, Lund) were used to isolate peripheral blood mononuclear cells (PBMCs), and subsequently NK cells. Briefly, peripheral blood components were separated using Ficoll Paque PLUS (Amersham Biosciences, Sweden) in LeucoSep tubes (Greiner Bio-One). The PBMC fraction was removed and thoroughly washed in ice-cold DPBS (Invitrogen), before magnetic labeling and separation of the NK cell population using positive or negative NK cell isolation kits and MACS LS columns (Miltenyi Biotec). The purity of the obtained NK cell fractions was analyzed using flow cytometry, after staining with α-CD56 antibodies (BD Biosciences). Target cells were harvested, and incubated in medium with or without the respective antibodies (2 μg/mL) for 60 min on ice. Cells were thereafter washed and resuspended in cold medium before dispension into FACS tubes. Subsequently, isolated NK cells were diluted in ADCC medium and dispensed together with the respective antibody-coated target cells at varying effector/target cell ratios (40:1, 20:1, 5:1 and 1:1). All experiments were performed in triplicates. After completed incubation ToPo-Pro-3 dye and counting beads (Invitrogen) were added and cells were analyzed for membrane permeabilization using flow cytometry.

The nature of data set [7]: Serum antibody levels of treated xenografted mice (ELISA). The following applies: Dose 2 mg/kg; serum at end of experimentation. It counts as in vivo. Here is the method:
We next performed a dose-titration experiment to establish IgG B11 in vivo potency and the minimal dose achieving maximal anti-tumor activity, using the scid/ARH-77 model system. […] Mouse serum antibody trough concentrations were determined by ELISA at the end of experimentation. Trough antibody concentrations were then plotted against percent of maximal in vivo anti-tumour activity, and against percent of maximal ICAM-1 receptor occupancy and tumour cell PCD at corresponding antibody concentrations in vitro (FIGS. 3C, 3D, 3E, 3F and 3G). Strikingly, a near perfect correlation between antibody concentration and in vitro tumour cell receptor occupancy, in vitro tumor cell PCD, and in vivo anti-tumour activity was observed, consistent with ICAM-1 dependent direct cell cytotoxicity underlying in vivo anti-tumour activity.

Data set [8] concerns the target T1, human FcγRIIIa (Homo sapiens, UniProt P08637).
T1 construct: made in house; host or cells: HEK293E (transient, adherent)
Nature of the data set: B11 isotype variant binding to FcγR (Biacore), human FcγRIIIa. As for the experimental part: His-tagged human FcγRIIIa or mouse FcγRIV were expressed transient in adherent HEK293E cells, purified using Ni-NTA chromatography and characterized using SDS-PAGE and/or Biacore. Surface plasmon resonance (SPR) measurements were performed using a Biacore 3000 instrument. Goat α-human-F(ab)′2 F(ab)′2 fragment (Jackson laboratories) was immobilised with a CM-5 chip using a standard amine coupling protocol. IgG1 B11, IgG4 B11, or 297Q B11 were diluted to 15 and 60 μg/mL respectively and added to the surface at […] for 3 min. His tagged human FcγRIIIa or mouse FcγRIV were pre-incubated with an α-HIS antibody (R&D Systems) at a 2:1 molar ratio before addition to the chip surface, 30 μL/min, 1 min. After each cycle the surface was regenerated twice with glycine buffer pH 1.7.

T1 sequence (P08637 17-254): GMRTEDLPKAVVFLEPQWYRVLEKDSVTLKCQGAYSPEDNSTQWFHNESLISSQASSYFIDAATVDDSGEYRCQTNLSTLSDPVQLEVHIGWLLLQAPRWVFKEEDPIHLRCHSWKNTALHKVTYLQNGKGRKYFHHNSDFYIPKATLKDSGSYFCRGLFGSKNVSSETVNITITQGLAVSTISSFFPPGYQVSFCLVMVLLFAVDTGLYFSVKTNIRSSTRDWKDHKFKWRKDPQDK

With `CC(C)C[C@H](NC(=O)[C@H](Cc1ccccc1)NC(=O)c1cnccn1)B(O)O` [bortezomib, reference compound], the “ICAM-1 expression on tumor cells after treatment” value (shortened to “ICAM-1 expression on tumor cells”) in data set [1] (listed as VELCADE®) is “still expressed at unchanged, high levels”. Besides, the “ICAM-1 expression on tumor cells” value in data set [1] (listed as bortesomib) is given as “retained”. Besides, in data set [2], the animal survival entry is listed as “did not significantly enhance animal survival” and the “time to symptomatic disease onset” value is recorded as “insignificantly delayed disease onset”.

With `Nc1cccc2c1CN(C1CCC(=O)NC1=O)C2=O` (centres unmarked) [lenalidomide], the “ICAM-1 expression on tumor cells” value in data set [1] (listed as Revlimid®) is on record as “still expressed at unchanged, high levels”; in data set [1] (listed as revlimid) it was “retained”.

For the molecule `N[C@@H](Cc1ccc(N(CCCl)CCCl)cc1)C(=O)O` [melphalan], the “ICAM-1 expression on tumor cells” value in data set [1] (listed as AIKERAN®) is recorded as “still expressed at unchanged, high levels”; in data set [1] (listed as alkeran), “retained”.

rituximab [reference compound]: the “induction of CDC” value in data set [3] is listed as “effectively induced CDC”. The tumor growth result in data set [4] (20 mg/kg twice weekly i.p., commencing one day after tumor cell inoculation) was “significant anti-tumor activity albeit less efficaciously so compared to IgG B11”. Also, in data set [5], the animal survival entry is recorded as “incapable of reducing tumor growth or promoting animal survival” and the tumor growth result is “incapable of reducing tumor growth”.

B1: 297Q B11: FcγR-binding deficient mutant IgG1 (N297Q IgG1) isotype switch variant of B11 (antibody, V domains shown)
VH: EVQLLESGGGLVQPGGSLRLSCAASGFTFSNAWMSWVRQAPGKGLEWVAFIWYDGSNKYYADSVKGRFTISRDNSKNTLYLQMNSLRAEDTAVYYCARYSGWYFDYWGQGTLVTVSS
VL: QSVLTQPPSASGTPGQRVTISCTGSSSNIGAGYDVHWYQQLPGTAPKLLIYDNNNRPSGVPDRFSGSKSGTSASLAISGLRSEDEADYYCQSYDSSLSAWLFGGGTKLTVLG
With B1, the “anti-tumor activities of IgG B11 isotype switch variants (rank order)” value in data set [4] is “increased in the order of IgG1N297Q<IgG4<IgG1”. For the same molecule, the “ADCC of target tumor cells” value in data set [6] is “did not mediate ADCC of target tumor cells”. Besides, the “In vivo IgG Levels” value in data set [7] amounted to 9.6 ± 3. μg/mL. For the same molecule, in data set [8], the “binding to human FcγRIIIa” value was “did not bind to human FcγRIIIa”.

B2: IgG4 B11: human IgG4 isotype switch variant of B11 (antibody, V domains shown)
VH: EVQLLESGGGLVQPGGSLRLSCAASGFTFSNAWMSWVRQAPGKGLEWVAFIWYDGSNKYYADSVKGRFTISRDNSKNTLYLQMNSLRAEDTAVYYCARYSGWYFDYWGQGTLVTVSS
VL: QSVLTQPPSASGTPGQRVTISCTGSSSNIGAGYDVHWYQQLPGTAPKLLIYDNNNRPSGVPDRFSGSKSGTSASLAISGLRSEDEADYYCQSYDSSLSAWLFGGGTKLTVLG
On to B2, for which the “anti-tumor activities of IgG B11 isotype switch variants (rank order)” value in data set [4] is “increased in the order of IgG1N297Q<IgG4<IgG1”. Further, the “ADCC of target tumor cells” value in data set [6] was “did not mediate ADCC of target tumor cells”. In data set [7], the “In vivo IgG Levels” value came to 13 ± 3.1 µg/mL. For the same molecule, the “binding to human FcγRIIIa” value in data set [8] was “did not bind to human FcγRIIIa”.

Values taken from patent publication US20150352207A1, “USE OF ANTIBODIES AGAINST ICAM-1 IN COMBINATION WITH AN ANTI CANCER DRUG IN THE TREATMENT OF PATIENTS” (BIOINVENT INTERNATIONAL AB, priority 2013, published 2015).
